Measurements as given in the supplement of paper PMC12463676, “Small-molecule dissolution of stress granules by redox modulation benefits ALS models” (Nature Chemical Biology, 2025).

What was measured:
[1] = compound: NC(=O)CCCCC1CCSS1 [lipoamide]; test: thermal stability z-score vs DMSO; higher = more thermally stabilized by treatment; conditions: HeLa, lipoamide concentration 100 µM
Procedure: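 Cellular thermal proteome profiling in HeLa cells. Cells were treated with 100 µM lipoamide for 1 h, with or without 1 mM arsenate for a further 1 h, then heated to ten temperatures (37-66.3 °C), and soluble protein was quantified by TMT mass spectrometry relative to 0.1% DMSO controls. The thermal stability score (sum of log2 fold changes minus the abundance score) was transformed to a z-score; mean of n = 3 experiments.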

[2] = compound: O=[As]([O-])(O)O.[K+] [potassium arsenate]; test: as above; conditions: HeLa; arsenate concentration 1 mM
Procedure: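 Cellular thermal proteome profiling in HeLa cells treated with 1 mM arsenate for 1 h (DMSO pretreatment), heated to ten temperatures (37-66.3 °C). Soluble protein was quantified by TMT mass spectrometry relative to DMSO controls; the thermal stability score was transformed to a z-score; mean of n = 3 experiments.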

[3] = arsenate co-treatment: 1 mM arsenate 1 h
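Further: each temperature applied for 3 min, abundance score taken as mean log2 fold change at the two lowest temperatures, z-score obtained by mean subtraction and division by SD.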

Sequence of UniProt Q96SN8 (Q96SN8 whole entry): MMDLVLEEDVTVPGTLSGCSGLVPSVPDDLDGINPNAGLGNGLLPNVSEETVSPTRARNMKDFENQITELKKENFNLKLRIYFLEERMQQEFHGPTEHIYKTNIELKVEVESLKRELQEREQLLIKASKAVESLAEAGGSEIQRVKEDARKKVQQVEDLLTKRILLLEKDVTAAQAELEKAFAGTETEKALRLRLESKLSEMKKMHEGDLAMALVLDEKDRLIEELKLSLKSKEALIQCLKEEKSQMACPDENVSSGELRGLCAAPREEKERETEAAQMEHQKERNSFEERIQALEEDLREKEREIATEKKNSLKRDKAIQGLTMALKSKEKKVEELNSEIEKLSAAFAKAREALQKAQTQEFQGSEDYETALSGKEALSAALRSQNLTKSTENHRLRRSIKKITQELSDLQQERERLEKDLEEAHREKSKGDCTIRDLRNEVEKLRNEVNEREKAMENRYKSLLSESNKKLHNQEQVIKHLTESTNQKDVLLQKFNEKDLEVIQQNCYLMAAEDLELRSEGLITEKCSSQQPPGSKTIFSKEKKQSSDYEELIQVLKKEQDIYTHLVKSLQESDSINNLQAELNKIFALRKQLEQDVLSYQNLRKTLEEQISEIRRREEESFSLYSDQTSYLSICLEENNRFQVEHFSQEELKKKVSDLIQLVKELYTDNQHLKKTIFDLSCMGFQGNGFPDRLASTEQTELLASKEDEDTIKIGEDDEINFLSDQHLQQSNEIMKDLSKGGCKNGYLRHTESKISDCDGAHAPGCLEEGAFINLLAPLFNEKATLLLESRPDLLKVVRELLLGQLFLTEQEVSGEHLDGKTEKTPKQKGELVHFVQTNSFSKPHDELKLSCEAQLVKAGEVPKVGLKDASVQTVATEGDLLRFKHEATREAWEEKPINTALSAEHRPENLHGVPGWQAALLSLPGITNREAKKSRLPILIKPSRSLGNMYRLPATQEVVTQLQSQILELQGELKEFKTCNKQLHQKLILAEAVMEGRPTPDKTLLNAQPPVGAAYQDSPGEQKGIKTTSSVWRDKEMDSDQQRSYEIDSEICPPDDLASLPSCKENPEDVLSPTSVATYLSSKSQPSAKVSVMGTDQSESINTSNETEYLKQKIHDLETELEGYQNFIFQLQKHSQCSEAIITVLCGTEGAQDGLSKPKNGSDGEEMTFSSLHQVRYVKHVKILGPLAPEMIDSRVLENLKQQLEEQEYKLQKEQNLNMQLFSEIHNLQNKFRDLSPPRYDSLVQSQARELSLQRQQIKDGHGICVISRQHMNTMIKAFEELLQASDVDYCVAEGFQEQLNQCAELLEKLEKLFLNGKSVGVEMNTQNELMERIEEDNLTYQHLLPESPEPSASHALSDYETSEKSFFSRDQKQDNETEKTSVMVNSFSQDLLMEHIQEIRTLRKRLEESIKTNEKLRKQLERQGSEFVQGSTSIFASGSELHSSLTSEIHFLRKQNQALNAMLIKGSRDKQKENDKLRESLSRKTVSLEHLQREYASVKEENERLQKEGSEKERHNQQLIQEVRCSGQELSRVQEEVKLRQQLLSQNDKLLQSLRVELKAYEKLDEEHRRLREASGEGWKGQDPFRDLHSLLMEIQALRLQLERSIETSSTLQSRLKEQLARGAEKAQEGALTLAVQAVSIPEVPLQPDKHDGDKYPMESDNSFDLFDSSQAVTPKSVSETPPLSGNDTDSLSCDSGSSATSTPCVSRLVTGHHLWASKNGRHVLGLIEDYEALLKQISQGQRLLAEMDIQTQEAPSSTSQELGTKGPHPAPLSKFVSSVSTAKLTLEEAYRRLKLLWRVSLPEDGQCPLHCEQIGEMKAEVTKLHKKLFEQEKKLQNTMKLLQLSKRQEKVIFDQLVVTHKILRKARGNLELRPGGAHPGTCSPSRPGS
Sequence of UniProt P48960 (P48960 whole entry): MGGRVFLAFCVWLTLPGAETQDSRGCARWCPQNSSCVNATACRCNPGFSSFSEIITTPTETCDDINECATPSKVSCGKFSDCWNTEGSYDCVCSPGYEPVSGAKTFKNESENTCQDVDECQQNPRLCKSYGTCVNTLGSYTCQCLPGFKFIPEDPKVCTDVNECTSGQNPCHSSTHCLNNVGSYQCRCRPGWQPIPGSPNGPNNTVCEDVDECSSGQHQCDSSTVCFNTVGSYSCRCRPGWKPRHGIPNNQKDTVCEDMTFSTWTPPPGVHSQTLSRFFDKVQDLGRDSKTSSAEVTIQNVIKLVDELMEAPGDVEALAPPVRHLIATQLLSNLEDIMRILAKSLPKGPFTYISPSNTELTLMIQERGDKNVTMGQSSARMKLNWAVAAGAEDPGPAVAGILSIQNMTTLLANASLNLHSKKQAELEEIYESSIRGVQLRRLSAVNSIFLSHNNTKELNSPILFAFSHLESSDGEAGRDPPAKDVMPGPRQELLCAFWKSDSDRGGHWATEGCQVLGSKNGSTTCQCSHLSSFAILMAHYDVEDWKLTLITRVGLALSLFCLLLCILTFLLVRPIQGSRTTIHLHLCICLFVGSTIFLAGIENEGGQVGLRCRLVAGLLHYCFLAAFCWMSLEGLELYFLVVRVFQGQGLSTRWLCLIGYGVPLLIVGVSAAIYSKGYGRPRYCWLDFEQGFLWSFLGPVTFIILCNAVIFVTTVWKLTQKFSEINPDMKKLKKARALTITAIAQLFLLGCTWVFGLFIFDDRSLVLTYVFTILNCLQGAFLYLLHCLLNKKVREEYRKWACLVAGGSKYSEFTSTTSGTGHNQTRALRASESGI
Sequence of UniProt P06493 (P06493 whole entry, looked up): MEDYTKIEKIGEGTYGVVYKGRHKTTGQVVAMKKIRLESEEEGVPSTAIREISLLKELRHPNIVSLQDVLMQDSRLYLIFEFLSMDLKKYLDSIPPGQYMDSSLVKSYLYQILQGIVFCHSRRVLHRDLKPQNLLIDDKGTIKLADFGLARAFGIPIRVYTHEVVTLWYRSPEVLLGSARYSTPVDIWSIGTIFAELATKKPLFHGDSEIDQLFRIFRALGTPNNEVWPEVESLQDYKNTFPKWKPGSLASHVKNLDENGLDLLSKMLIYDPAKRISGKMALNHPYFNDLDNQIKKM
Sequence of UniProt Q9NYV4 (Q9NYV4 whole entry, looked up): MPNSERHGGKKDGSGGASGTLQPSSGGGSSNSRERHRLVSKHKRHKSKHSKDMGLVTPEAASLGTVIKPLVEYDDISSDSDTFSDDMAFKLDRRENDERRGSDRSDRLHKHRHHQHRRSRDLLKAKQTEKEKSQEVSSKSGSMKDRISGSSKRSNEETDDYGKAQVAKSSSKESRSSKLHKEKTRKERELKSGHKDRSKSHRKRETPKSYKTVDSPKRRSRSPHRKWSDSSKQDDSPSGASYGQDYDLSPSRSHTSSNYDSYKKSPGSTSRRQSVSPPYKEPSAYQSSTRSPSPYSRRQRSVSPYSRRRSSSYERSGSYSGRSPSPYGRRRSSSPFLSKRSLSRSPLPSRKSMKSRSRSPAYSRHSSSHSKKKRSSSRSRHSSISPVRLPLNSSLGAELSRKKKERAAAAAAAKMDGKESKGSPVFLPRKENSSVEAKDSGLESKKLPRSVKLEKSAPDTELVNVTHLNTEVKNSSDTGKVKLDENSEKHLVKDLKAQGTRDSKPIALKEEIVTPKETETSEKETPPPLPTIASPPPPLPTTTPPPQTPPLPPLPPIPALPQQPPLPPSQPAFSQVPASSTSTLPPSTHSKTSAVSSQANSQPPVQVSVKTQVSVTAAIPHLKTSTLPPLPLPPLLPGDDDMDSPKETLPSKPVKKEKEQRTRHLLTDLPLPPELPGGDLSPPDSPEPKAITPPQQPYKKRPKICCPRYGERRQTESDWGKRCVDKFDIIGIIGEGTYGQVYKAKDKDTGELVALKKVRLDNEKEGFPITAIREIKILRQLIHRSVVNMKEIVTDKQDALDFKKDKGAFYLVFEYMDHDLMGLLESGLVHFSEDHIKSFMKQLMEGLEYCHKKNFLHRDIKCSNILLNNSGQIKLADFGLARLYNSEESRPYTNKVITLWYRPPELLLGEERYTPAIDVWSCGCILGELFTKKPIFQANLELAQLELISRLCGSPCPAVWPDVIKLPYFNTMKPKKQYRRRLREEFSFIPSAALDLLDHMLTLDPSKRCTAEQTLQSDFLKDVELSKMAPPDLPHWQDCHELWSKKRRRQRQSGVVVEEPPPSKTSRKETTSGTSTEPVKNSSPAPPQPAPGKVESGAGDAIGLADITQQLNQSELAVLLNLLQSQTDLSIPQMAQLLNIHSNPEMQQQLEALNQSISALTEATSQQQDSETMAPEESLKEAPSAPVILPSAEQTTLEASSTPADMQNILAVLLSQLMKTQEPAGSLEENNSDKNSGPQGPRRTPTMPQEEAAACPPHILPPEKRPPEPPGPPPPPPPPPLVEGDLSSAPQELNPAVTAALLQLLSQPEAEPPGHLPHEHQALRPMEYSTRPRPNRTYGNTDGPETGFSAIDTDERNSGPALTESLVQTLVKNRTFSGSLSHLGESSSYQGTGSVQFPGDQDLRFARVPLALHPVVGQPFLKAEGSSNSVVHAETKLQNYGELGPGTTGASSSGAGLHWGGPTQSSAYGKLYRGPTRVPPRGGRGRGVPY
Sequence of UniProt P11802 (P11802 whole entry): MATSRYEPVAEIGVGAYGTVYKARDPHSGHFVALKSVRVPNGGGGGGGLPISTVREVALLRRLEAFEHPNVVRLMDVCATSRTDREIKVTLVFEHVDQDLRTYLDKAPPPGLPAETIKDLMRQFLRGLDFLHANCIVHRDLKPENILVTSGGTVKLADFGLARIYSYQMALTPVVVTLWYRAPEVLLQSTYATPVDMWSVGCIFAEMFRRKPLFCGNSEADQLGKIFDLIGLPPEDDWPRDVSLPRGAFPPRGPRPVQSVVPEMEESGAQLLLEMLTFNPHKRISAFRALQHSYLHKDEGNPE
Sequence of UniProt P48509 (P48509 whole entry): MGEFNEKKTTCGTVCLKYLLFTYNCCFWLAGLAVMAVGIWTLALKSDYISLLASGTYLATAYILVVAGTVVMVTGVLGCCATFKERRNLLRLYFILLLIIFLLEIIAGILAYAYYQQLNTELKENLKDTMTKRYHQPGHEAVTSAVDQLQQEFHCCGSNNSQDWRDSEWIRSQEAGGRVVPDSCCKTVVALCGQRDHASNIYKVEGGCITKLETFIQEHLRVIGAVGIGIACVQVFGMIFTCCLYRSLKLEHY

| Target | thermal stability z-score [1, 3] | thermal stability z-score ([1]; arsenate co-treatment: none) | thermal stability z-score [2] |
| --- | --- | --- | --- |
| CD70 (UniProt P32970) | 1.03 | 0.355 | -0.313 |
| CD81 (UniProt P60033) | -0.142 | -0.642 | -0.753 |
| CD97 (UniProt P48960) | 0.325 | 0.346 | 0.472 |
| CD99 (UniProt P14209) | 0.901 | 0.721 | 0.168 |
| CD109 (UniProt Q6YHK3) | -0.877 | -1.01 | 1.06 |
| CD151 (UniProt P48509) | 1.24 | 0.682 | 0.131 |
| CD276 (UniProt Q5ZPR3) | 0.196 | -0.174 | 0.000316 |
| CD320 (UniProt Q9NPF0) | 1.65 | 0.874 | 1.01 |
| CDA (UniProt P32320) | 0.868 | 1 | 1.03 |
| CDAN1 (UniProt Q8IWY9) | -0.217 | -0.235 | -0.113 |
| CDC5L (UniProt Q99459) | 0.945 | 0.573 | -0.167 |
| CDC6 (UniProt Q99741) | -0.0605 | 0.0639 | -0.258 |
| CDC16 (UniProt Q13042) | 0.159 | 0.0509 | -0.551 |
| CDC20 (UniProt Q12834) | -0.124 | -0.245 | -1.51 |
| CDC23 (UniProt Q9UJX2) | -0.546 | -0.315 | -0.726 |
| CDC26 (UniProt Q8NHZ8) | 1.32 | 0.534 | 0.691 |
| CDC27 (UniProt P30260) | 0.122 | 0.0944 | -0.522 |
| CDC34 (UniProt P49427) | -0.142 | -0.0805 | 0.0868 |
| CDC37 (UniProt Q16543) | 0.928 | 0.616 | 0.222 |
| CDC37L1 (UniProt Q7L3B6) | -0.275 | -0.0638 | 0.23 |
| CDC40 (UniProt O60508) | -0.117 | 0.182 | 0.0978 |
| CDC42 (UniProt P60953) | 0.932 | 0.454 | 0.0976 |
| CDC42BPA (UniProt Q5VT25) | 0.504 | 0.561 | 0.379 |
| CDC42BPB (UniProt Q9Y5S2) | -0.57 | -0.124 | -0.221 |
| CDC42EP1 (UniProt Q00587) | -0.844 | -0.776 | 0.213 |
| CDC42EP4 (UniProt Q9H3Q1) | -0.323 | -0.652 | 0.499 |
| CDC42SE1 (UniProt Q9NRR8) | -0.0857 | 0.383 | -0.154 |
| CDC45 (UniProt O75419) | 0.0843 | 0.0302 | -0.457 |

| Target | thermal stability z-score [1, 3] | thermal stability z-score ([1]; arsenate co-treatment: none) | thermal stability z-score [2] |
| --- | --- | --- | --- |
| CDC73 (UniProt Q6P1J9) | 0.521 | 0.541 | 0.234 |
| CDC123 (UniProt O75794) | 0.8 | -0.214 | 3.29 |
| CDCA3 (UniProt Q99618) | 0.196 | 0.0335 | -0.233 |
| CDH10 (UniProt Q9Y6N8) | 0.493 | 0.14 | 1.02 |
| CDIPT (UniProt O14735) | 1.05 | 0.638 | -0.187 |
| CDK1 (UniProt P06493) | 0.163 | -0.0348 | 0.246 |
| CDK2 (UniProt P24941) | 1.12 | 0.288 | 0.48 |
| CDK2AP1 (UniProt O14519) | -0.0893 | -0.224 | -0.113 |
| CDK4 (UniProt P11802) | 1.15 | 1.03 | 0.783 |
| CDK5 (UniProt Q00535) | -0.0682 | 0.212 | 0.0671 |
| CDK5RAP1 (UniProt Q96SZ6) | 0.128 | 0.198 | 0.157 |
| CDK5RAP2 (UniProt Q96SN8) | -0.149 | -0.131 | -0.112 |
| CDK5RAP3 (UniProt Q96JB5) | -0.0376 | 0.162 | 0.406 |
| CDK6 (UniProt Q00534) | -0.218 | 0.136 | 0.123 |
| CDK7 (UniProt P50613) | -0.000906 | -0.0377 | -0.0106 |
| CDK8 (UniProt P49336) | -0.0332 | -0.822 | -1.66 |
| CDK9 (UniProt P50750) | -0.226 | -0.263 | 0.544 |
| CDK12 (UniProt Q9NYV4) | -0.233 | 0.0238 | -0.614 |
| CDK13 (UniProt Q14004) | 0.155 | -0.0381 | -0.0661 |
| CDK16 (UniProt Q00536) | 0.0459 | -0.3 | 0.0532 |
| CDK17 (UniProt Q00537) | 1.07 | 0.395 | -0.0969 |
| CDKAL1 (UniProt Q5VV42) | 1.09 | 0.835 | -0.903 |
| CDKN2A | 0.99 | 1.64 | 0.466 |
| CDKN2AIP (UniProt Q9NXV6) | 0.446 | 0.454 | -0.347 |
| CDR2 (UniProt Q01850) | 0.134 | 0.141 | 0.139 |
| CDR2L (UniProt Q86X02) | 0.891 | 0.86 | -0.419 |
| CDS2 (UniProt O95674) | -0.807 | -0.975 | -0.43 |
